We go through 12 molecules from ChEMBL document CHEMBL1201862, “PubChem BioAssay data set” (2004).

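Where inhibition never reached the appropriate level, the endpoint shown equals the highest concentration tested. Otherwise, values were interpolated linearly from a five-concentration, 48-hour dose response in 96-well plates. Abbreviation: GI50, concentration required for 50% inhibition of growth.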 Calls of active or inactive are those of the source. Cut-off read from the data, not from the text of the source: active = GI50 up to about 1.1 µM and inactive = higher.

Among the test systems are SNB-75; SK-OV-3; NCI-H23; KM12; HL-60; SF-268; K562; HOP-92; SF-539; SK-MEL-28; UACC-257; NCI-H226; U-251; OVCAR-4; OVCAR-3; A549; RPMI-8226; NCI-H522; Malme-3M; NCI/ADR-RES.
What all share (assay): growth of human tumour cells (NCI), 48 h

`Cc1cccc2nc3cccc(C(=O)NCCN(C)C)c3nc12`: the GI50 was 1.08 µM (active) in the assay on SNB-75; 0.574 µM (active) in the assay on SK-OV-3; 0.541 µM (active) in the assay on NCI-H23; 0.641 µM (active) in the assay on KM12; 0.461 µM (active) in the assay with HL-60; 0.885 µM (active) with SF-268. Moreover, the GI50 was 0.363 µM (active) with K562; 0.605 µM (active) in the assay on HOP-92; 0.292 µM (active) in the assay on SF-539; 1.01 µM (active) with SK-MEL-28; 0.491 µM (active) in the assay on UACC-257; 1.04 µM (active) with NCI-H226. Further, the GI50 with U-251 is 0.492 µM (active); in the assay with OVCAR-4 it was 0.83 µM (active); in the assay on OVCAR-3 it was 1.36 µM (inactive); with A549, 0.383 µM (active).

In the case of `O=C(c1ccccc1)c1ccc2n[se]nc2c1`, the GI50 in the assay with SNB-75 is 18.4 µM (inactive); in the assay with SK-OV-3, 35.1 µM (inactive); in the assay with NCI-H23 it was 62.5 µM (inactive); with KM12, 4.54 µM (inactive); with HL-60 it was 3.56 µM (inactive); in the assay with SF-268 it was > 100 µM (inactive). Moreover, the GI50 in the assay with K562 is 4.29 µM (inactive); with RPMI-8226 it was 28.4 µM (inactive); in the assay on SF-539 it was 17.9 µM (inactive); in the assay with SK-MEL-28 it was > 100 µM (inactive); in the assay on UACC-257, > 100 µM (inactive); in the assay with NCI-H522, 25.2 µM (inactive). Also, the GI50 is > 100 µM (inactive) in the assay on Malme-3M, > 100 µM (inactive) in the assay on U-251, 39.4 µM (inactive) in the assay on OVCAR-4 and 34.8 µM (inactive) in the assay with A549.

Regarding `COc1cc(-c2cc(=O)c3c(O)c(CC=C(C)C)c(O)cc3o2)ccc1O`, the GI50 in the assay on SK-OV-3 is 32.3 µM (inactive); in the assay on NCI-H23 it was > 50 µM (inactive); in the assay on HL-60, > 50 µM (inactive); in the assay with SF-268 it was 24.6 µM (inactive); with NCI/ADR-RES it was 16 µM (inactive); with K562, 16.7 µM (inactive). The GI50 with RPMI-8226 is 11.7 µM (inactive); with HOP-92, > 50 µM (inactive); in the assay with SF-539, 16.9 µM (inactive); with SK-MEL-28, 1.17 µM (inactive); in the assay on UACC-257, > 50 µM (inactive); with NCI-H226 it was > 50 µM (inactive). Moreover, the GI50 with Malme-3M was 13.5 µM (inactive); with U-251, 24.1 µM (inactive); with OVCAR-4, 15.8 µM (inactive); in the assay with OVCAR-3, 14.9 µM (inactive); in the assay on A549, 26 µM (inactive).

For the molecule `O=C(Nc1ccccc1F)c1c(O)nc2sccn2c1=O`, the GI50 in the assay on SNB-75, with SK-OV-3, in the assay with NCI-H23, in the assay with KM12, with HL-60 and with SF-268 was > 10 µM (inactive) in each case. Besides, the GI50 with NCI/ADR-RES, in the assay with RPMI-8226, with SF-539, in the assay on SK-MEL-28, in the assay on NCI-H226 and with NCI-H522 was > 10 µM (inactive) each time. Moreover, the GI50 in the assay with Malme-3M, in the assay on U-251, with OVCAR-4, in the assay on OVCAR-3 and in the assay with A549 was > 10 µM (inactive) in each case.

Take `COc1cccc(-c2nnc3c(-c4ccccc4)nc4ccccc4n23)c1`: the GI50 in the assay on SK-OV-3 is 73.8 µM (inactive); in the assay with NCI-H23, 30.1 µM (inactive); with KM12, 4.94 µM (inactive); in the assay on HL-60 it was 7.18 µM (inactive); in the assay on SF-268 it was > 100 µM (inactive); in the assay with NCI/ADR-RES it was 14.4 µM (inactive). Besides, the GI50 in the assay with K562 was 4.11 µM (inactive); with RPMI-8226, 3.45 µM (inactive); with HOP-92 it was 28 µM (inactive); in the assay with SF-539, 65.8 µM (inactive); with SK-MEL-28, > 77.4 µM (inactive); in the assay with UACC-257, 17.9 µM (inactive). Further, the GI50 with NCI-H226 is 57.3 µM (inactive); in the assay with NCI-H522, 3.37 µM (inactive); in the assay on Malme-3M, 10.9 µM (inactive); with U-251, 21.8 µM (inactive); in the assay on OVCAR-4 it was 9.86 µM (inactive); with OVCAR-3 it was 12.7 µM (inactive). Also, in the assay with A549, the GI50 was 21.2 µM (inactive).

On to `CC1(C)OP(=O)(c2ccccc2)C=C1Sc1ccc([N+](=O)[O-])cc1[N+](=O)[O-]` (stereo not given), for which the GI50 was > 100 µM (inactive) with SNB-75; > 100 µM (inactive) in the assay with SK-OV-3; 77.6 µM (inactive) in the assay on NCI-H23; 98.2 µM (inactive) in the assay on KM12; 15.9 µM (inactive) in the assay on HL-60; 52.1 µM (inactive) in the assay with SF-268. Moreover, the GI50 in the assay with NCI/ADR-RES is 80.5 µM (inactive); in the assay on K562, 27 µM (inactive); in the assay with HOP-92, 91.4 µM (inactive); in the assay with SF-539 it was 33.7 µM (inactive); in the assay on SK-MEL-28 it was 85.1 µM (inactive); in the assay on UACC-257 it was > 100 µM (inactive). Besides, the GI50 in the assay with NCI-H226 was > 100 µM (inactive); in the assay on NCI-H522, 19 µM (inactive); with Malme-3M it was 78.3 µM (inactive); in the assay on U-251 it was 54.7 µM (inactive); in the assay with OVCAR-4, 29.7 µM (inactive); in the assay on OVCAR-3, 30.4 µM (inactive). Moreover, in the assay with A549, the GI50 was > 100 µM (inactive).

Regarding `CC(=O)c1c(P(=O)(OC(C)C)OC(C)C)nn(-c2ccc([N+](=O)[O-])cc2)c1C`, the GI50 is > 10 µM (inactive) in the assay with SNB-75; > 100 µM (inactive) in the assay on SK-OV-3; > 100 µM (inactive) in the assay on NCI-H23; > 100 µM (inactive) in the assay on KM12; > 100 µM (inactive) in the assay with HL-60; > 100 µM (inactive) in the assay on SF-268. The GI50 in the assay with K562, in the assay with RPMI-8226, in the assay on HOP-92, with SF-539, in the assay with SK-MEL-28 and with UACC-257 was > 100 µM (inactive) in each case. Besides, the GI50 in the assay with NCI-H522, in the assay on Malme-3M, in the assay on U-251, with OVCAR-4, with OVCAR-3 and in the assay on A549 was > 100 µM (inactive) in each case.

`CCOC(=O)CSc1nc(N)c2c(-c3ccc(OC)c(OC)c3)c3c(nc2n1)CCCC3`: the GI50 in the assay on SNB-75 was 14.4 µM (inactive); in the assay on SK-OV-3, 26.9 µM (inactive); with NCI-H23, > 100 µM (inactive); in the assay with KM12, > 100 µM (inactive); in the assay with HL-60 it was > 100 µM (inactive); with SF-268, 43.4 µM (inactive). For the same molecule, the GI50 is 60.3 µM (inactive) in the assay with NCI/ADR-RES; > 100 µM (inactive) with K562; > 100 µM (inactive) in the assay with RPMI-8226; > 100 µM (inactive) with SK-MEL-28; > 100 µM (inactive) in the assay on UACC-257; 88.1 µM (inactive) in the assay with Malme-3M. Further, the GI50 was > 100 µM (inactive) in the assay with U-251, 34.4 µM (inactive) with OVCAR-4, > 100 µM (inactive) in the assay on OVCAR-3 and > 100 µM (inactive) with A549.

On to `O=C1c2cccc3cc4ccccc4c(c23)C(=O)N1CCNCCNCCNCCN1C(=O)c2cccc3cc4ccccc4c(c23)C1=O`, for which the GI50 in the assay with SNB-75 was < 0.0141 µM (active); in the assay with NCI-H23, < 0.01 µM (active); with HL-60, < 0.01 µM (active); in the assay with SF-268, < 0.01 µM (active); in the assay with NCI/ADR-RES, < 0.0136 µM (active); in the assay on K562 it was < 0.01 µM (active). Also, the GI50 is 0.0111 µM (active) with HOP-92; 0.0243 µM (active) with SF-539; < 0.01 µM (active) with SK-MEL-28; 0.201 µM (active) with UACC-257; 33.6 µM (inactive) in the assay on NCI-H226; 0.126 µM (active) in the assay on Malme-3M. Moreover, the GI50 was < 0.01 µM (active) in the assay on U-251, < 0.01 µM (active) with OVCAR-4, < 0.033 µM (active) in the assay on OVCAR-3 and < 0.01 µM (active) in the assay with A549.

As for `CSc1nc(CO)c(CO)n1C`, the GI50 with SNB-75, with SK-OV-3, in the assay with NCI-H23, with KM12, with HL-60 and in the assay with SF-268 was > 100 µM (inactive) throughout. In addition, the GI50 in the assay with NCI/ADR-RES, with K562, in the assay with RPMI-8226, with HOP-92, in the assay with SF-539 and in the assay on SK-MEL-28 was > 100 µM (inactive) throughout. For the same molecule, the GI50 in the assay with UACC-257, in the assay on NCI-H226, in the assay on NCI-H522, with U-251, in the assay on OVCAR-4 and with OVCAR-3 was > 100 µM (inactive) in each case. In addition, in the assay on A549, the GI50 is > 100 µM (inactive).

Take `C[C@]12CC[C@@H]3c4ccc(OCCN5CCCC5)cc4CC[C@H]3[C@@H]1CCC2=O`: the GI50 in the assay with SK-OV-3 was 48.6 µM (inactive); in the assay on NCI-H23, 36.4 µM (inactive); in the assay on HL-60, 45.2 µM (inactive); with NCI/ADR-RES, 24.7 µM (inactive); in the assay with K562 it was 25.4 µM (inactive); in the assay on RPMI-8226, 23.7 µM (inactive). The GI50 in the assay with HOP-92 is 29 µM (inactive); with SK-MEL-28, 49.5 µM (inactive); in the assay with UACC-257 it was 27 µM (inactive); with NCI-H226, 19.6 µM (inactive); in the assay on U-251, 75.2 µM (inactive); in the assay on OVCAR-4 it was 21.5 µM (inactive). The values for the GI50 with OVCAR-3 and in the assay on A549 were 23.9 µM (inactive) and 23.6 µM (inactive), respectively.

For the molecule `NC(CCP(=O)(O)CCC1C=CC=CC1)C(=O)O` (stereo not given), the GI50 in the assay on SNB-75, in the assay on SK-OV-3, in the assay on NCI-H23, in the assay with KM12, in the assay on HL-60 and with SF-268 was > 100 µM (inactive) each time. For the same molecule, the GI50 in the assay on NCI/ADR-RES was > 100 µM (inactive); in the assay with K562, > 100 µM (inactive); in the assay with RPMI-8226, > 100 µM (inactive); in the assay with HOP-92, > 100 µM (inactive); in the assay with SF-539, 56.8 µM (inactive); in the assay with SK-MEL-28 it was > 100 µM (inactive). Also, the GI50 is > 100 µM (inactive) in the assay on UACC-257; 20.7 µM (inactive) in the assay with NCI-H522; > 100 µM (inactive) in the assay with U-251; > 100 µM (inactive) with OVCAR-4; > 100 µM (inactive) in the assay with OVCAR-3; > 100 µM (inactive) in the assay with A549.
